Reference: patent US20190134005A1 (BioMarin Pharmaceutical Inc., priority 2016, published 2019)

target: T1, human CGT (Homo sapiens, UniProt Q16880); assay: CGT Enzyme Assay (Biological Example 2, RapidFire/MS/MS method with 0.01% Tween 80 added); assay type: biochemical; details: enzymatic assay, CHO/CGT lysate
T1 sequence (Q16880 21-541): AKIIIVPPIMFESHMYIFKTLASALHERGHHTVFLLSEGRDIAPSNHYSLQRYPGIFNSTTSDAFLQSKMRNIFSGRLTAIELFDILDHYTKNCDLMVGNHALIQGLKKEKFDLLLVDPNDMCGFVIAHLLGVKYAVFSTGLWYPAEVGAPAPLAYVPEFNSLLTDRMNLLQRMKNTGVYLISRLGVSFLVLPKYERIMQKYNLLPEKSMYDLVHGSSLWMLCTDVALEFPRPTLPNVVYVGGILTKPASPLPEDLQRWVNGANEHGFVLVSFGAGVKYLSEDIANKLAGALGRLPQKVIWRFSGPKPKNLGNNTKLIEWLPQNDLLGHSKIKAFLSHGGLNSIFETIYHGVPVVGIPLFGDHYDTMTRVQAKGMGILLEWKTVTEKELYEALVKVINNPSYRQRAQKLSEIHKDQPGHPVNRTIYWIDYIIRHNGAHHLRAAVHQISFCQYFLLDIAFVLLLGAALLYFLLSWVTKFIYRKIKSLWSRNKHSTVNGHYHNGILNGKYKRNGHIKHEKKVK
Procedure: Full-length human CGT cDNA was cloned into the BamH1/Xho1 site of pcDNA3.1 (+) mammalian expression vector (V90-20, Invitrogen, Carlsbad, Calif.) and the plasmid was transfected into Chinese hamster ovary (CHO) cells. Lysate was prepared using M-PER (Mammalian Protein Extraction Reagent, ThermoFisher Scientific, Grand Island, N.Y.) in the presence of a protease inhibitor cocktail (P8340, Sigma, Saint Louis, Mo.). Each 100 mm dish (100% confluent, approximately 1×10^7 cells) was lysed with 250 μL of M-PER containing protease inhibitors. Protein concentration was determined using a Pierce BCA protein assay kit (ThermoFisher Scientific). […] The final concentration of DMSO was 0.5% in both compound-treated and mock-treated samples. Each individual reaction was diluted with 80 μL of methanol:acetronitrile (1:3) containing 5 μM N-docdecanoyl-NBD-galactosylceramide (internal standard) to stop the reaction. 200 μL H2O:acetonitile (1:1) was added to precipitate the protein. After sufficient mixing, the plates were centrifuged at 2469 g for 38 minutes, 200 μl of supernatant was transferred to a LC-MS 96-deep well plate and a second spin was performed at 2469 g for 10 minutes. The final supernatant was injected in triplicate for RapidFire/MS/MS analysis.
The quantitative analysis of C6-NBD-dihydro-ceramide and C6-NBD-dihydro-galactosylceramide was performed on a Rapid Fire 360 high-throughput mass spectrometry system (Agilent Technologies, Palo Alto, Calif.) coupled with a API4000^+ triple quadrupole mass spectrometer (Applied Biosystems, Concord, Ontario, Canada). RapidFire software packages, including RapidFire Control panel, RapidFire UI and RapidFire Integrator (Agilent Technologies), were used to control the RapidFire instrument and to process data. Analyst 1.6.2 software packages (Applied Biosystems) were used to control the MS system and acquire MS data. 10 μL of sample was loaded on a micro-scale C4 solid-phase extraction (SPE) cartridge (Agilent Technologies) and salts were removed using water supplemented with 0.1% formic acid at the flow rate of 1.5 mL/min for 3 sec. C6-NBD-dihydro-ceramide and C6-NBD-dihydro-galactosylceramide were co-eluted into the mass spectrometer using acetonitrile containing 0.1% formic acid at the flow rate of 1.0 mL/min for 3 sec. The total cycle time of one injection was 8 secs. The MS/MS detection was performed in ESI negative mode.
The C6-NBD-dihydro-galactosylceramide reading was normalized first by dividing the peak area of C6-NBD-dihydro-galactosylceramide by the peak area of the internal standard, N-docdecanoyl-NBD-galactosylceramide.

SMILES	IC50 [µM]
CC1(C)[C@H](c2cccc(C(F)(F)F)c2)N(c2ccc(Cl)cc2)C(=O)N1c1ccc(Cl)cc1 [Example 6-2, (S)-1,3-bis(4-chlorophenyl)-4,4-dimethyl-5-(3-(trifluoromethyl)phenyl)imidazolidin-2-one]	< 1
CC1(C)C(c2cccc(C(F)(F)F)c2)N(c2ccc(Cl)cc2)C(=O)N1c1ccc(Cl)cc1 (stereo not shown) [Example 6]	< 1
CC1(C)[C@@H](c2cccc(OC(F)(F)F)c2)N(c2ccc(Cl)cc2)C(=O)N1c1ccc(Cl)cc1 [Example 7-1, (R)-1,3-bis(4-chlorophenyl)-4,4-dimethyl-5-(3-(trifluoromethoxy)phenyl)imidazolidin-2-one]	1 to 10
CC1(C)[C@H](c2cccc(OC(F)(F)F)c2)N(c2ccc(Cl)cc2)C(=O)N1c1ccc(Cl)cc1 [Example 7-2, (S)-1,3-bis(4-chlorophenyl)-4,4-dimethyl-5-(3-(trifluoromethoxy)phenyl)imidazolidin-2-one]	< 1
CC1(C)C(c2cccc(OC(F)(F)F)c2)N(c2ccc(Cl)cc2)C(=O)N1c1ccc(Cl)cc1 (stereo not shown) [Example 7]	< 1
CC1(C)[C@@H](c2cccc(Cl)c2)N(c2ccc(Cl)cc2)C(=O)N1c1ccc(Cl)cc1 [Example 8-1, (R)-5-(3-chlorophenyl)-1,3-bis(4-chlorophenyl)-4,4-dimethylimidazolidin-2-one]	10 to 30
CC1(C)[C@H](c2cccc(Cl)c2)N(c2ccc(Cl)cc2)C(=O)N1c1ccc(Cl)cc1 [Example 8-2, (S)-5-(3-chlorophenyl)-1,3-bis(4-chlorophenyl)-4,4-dimethylimidazolidin-2-one]	< 1
CC1(C)C(c2cccc(Cl)c2)N(c2ccc(Cl)cc2)C(=O)N1c1ccc(Cl)cc1 (stereo not shown) [Example 8]	< 1
CC1(C)[C@@H](c2cccc(OC(F)F)c2)N(c2ccc(Cl)cc2)C(=O)N1c1ccc(Cl)cc1 [Example 9-1, (R)-1,3-bis(4-chlorophenyl)-5-(3-(difluoromethoxy)phenyl)-4,4-dimethylimidazolidin-2-one]	10 to 30
CC1(C)[C@H](c2cccc(OC(F)F)c2)N(c2ccc(Cl)cc2)C(=O)N1c1ccc(Cl)cc1 [Example 9-2, (S)-1,3-bis(4-chlorophenyl)-5-(3-(difluoromethoxy)phenyl)-4,4-dimethylimidazolidin-2-one]	< 1
CC1(C)C(c2cccc(OC(F)F)c2)N(c2ccc(Cl)cc2)C(=O)N1c1ccc(Cl)cc1 (stereo not shown) [Example 9]	< 1
CC1(C)[C@@H](c2cccc(C#N)c2)N(c2ccc(Cl)cc2)C(=O)N1c1ccc(Cl)cc1 [Example 10-1, (R)-3-(1,3-bis(4-chlorophenyl)-5,5-dimethyl-2-oxoimidazolidin-4-yl)benzonitrile]	10 to 30
CC1(C)[C@H](c2cccc(C#N)c2)N(c2ccc(Cl)cc2)C(=O)N1c1ccc(Cl)cc1 [Example 10-2, (S)-3-(1,3-bis(4-chlorophenyl)-5,5-dimethyl-2-oxoimidazolidin-4-yl)benzonitrile]	< 1
O=C1N(c2ccc(Cl)cc2)C2CCCC2(c2cccc(OC(F)(F)F)c2)N1c1ccc(Cl)cc1 (stereo not shown) [Example 12]	1 to 10
N#Cc1cccc(C23CCCCC2N(c2ccc(Cl)cc2)C(=O)N3c2ccc(Cl)cc2)c1 (stereo not shown) [Example 14]	< 1
O=C1N(c2ccc(Cl)cc2)C2CCCCC2(c2cccc(OC(F)(F)F)c2)N1c1ccc(Cl)cc1 (stereo not shown) [Example 15-1, 1,3-bis(4-chlorophenyl)-3a-(3-(trifluoromethoxy)phenyl)octahydro-2H-benzo[d]imidazol-2-one]	10 to 30
O=C1N(c2ccc(Cl)cc2)C2CCCC2(c2cccc(O)c2)N1c1ccc(Cl)cc1 (stereo not shown) [Example 18]	10 to 30

Next, values leading:

IC50 [µM]	SMILES
1 to 10	C[C@@H]1[C@@H](c2cccc(OC(F)(F)F)c2)N(c2ccc(Br)cc2)C(=O)N1c1ccc(Br)cc1 [Example 11-1, (4R,5R)-1,3-bis(4-bromophenyl)-4-methyl-5-(3-(trifluoromethoxy)phenyl)imidazolidin-2-one]
< 1	C[C@H]1[C@H](c2cccc(OC(F)(F)F)c2)N(c2ccc(Br)cc2)C(=O)N1c1ccc(Br)cc1 [Example 11-2, (4S,5S)-1,3-bis(4-bromophenyl)-4-methyl-5-(3-(trifluoromethoxy)phenyl)imidazolidin-2-one]
1 to 10	O=C1N(c2ccc(Cl)cc2)[C@H]2CCC[C@@]2(c2cccc(OC(F)(F)F)c2)N1c1ccc(Cl)cc1 [Example 12-1, (3aS,6aS)-1,3-bis(4-chlorophenyl)-3a-(3-(trifluoromethoxy)phenyl)hexahydrocyclopenta[d]imidazol-2(1H)-one]
10 to 30	O=C1N(c2ccc(Cl)cc2)[C@@H]2CCC[C@]2(c2cccc(OC(F)(F)F)c2)N1c1ccc(Cl)cc1 [Example 12-2, (3aR,6aR)-1,3-bis(4-chlorophenyl)-3a-(3-(trifluoromethoxy)phenyl)hexahydrocyclopenta[d]imidazol-2(1H)-one]
1 to 10	N#Cc1cccc([C@]23CCCC[C@H]2N(c2ccc(Cl)cc2)C(=O)N3c2ccc(Cl)cc2)c1 [Example 14-1, 3-((3aR,7aR)-1,3-bis(4-chlorophenyl)-2-oxooctahydro-3aH-benzo[d]imidazol-3a-yl)benzonitrile]
10 to 30	N#Cc1cccc([C@@]23CCCC[C@@H]2N(c2ccc(Cl)cc2)C(=O)N3c2ccc(Cl)cc2)c1 [Example 14-2, 3-((3aS,7aS)-1,3-bis(4-chlorophenyl)-2-oxooctahydro-3aH-benzo[d]imidazol-3a-yl)benzonitrile]
< 1	O=C1N(c2ccc(Cl)cc2)[C@H](c2cccc(OC(F)(F)F)c2)C2(CCCC2)N1c1ccc(Cl)cc1 [Example 15-2, (R)-1,3-bis(4-chlorophenyl)-4-(3-(trifluoromethoxy)phenyl)-1,3-diazaspiro[4.4]nonan-2-one]
10 to 30	O=C1N(c2ccc(Cl)cc2)[C@@H](c2cccc(OC(F)(F)F)c2)C2(CCCC2)N1c1ccc(Cl)cc1 [Example 15-3, (S)-1,3-bis(4-chlorophenyl)-4-(3-(trifluoromethoxy)phenyl)-1,3-diazaspiro[4.4]nonan-2-one]
10 to 30	O=C1N(c2ccc(Cl)cc2)[C@H]2CCC[C@@]2(c2cccc(C(F)F)c2)N1c1ccc(Cl)cc1 [Example 16-1, (3aS,6aS)-1,3-bis(4-chlorophenyl)-3a-(3-(difluoromethyl)phenyl)hexahydrocyclopenta[d]imidazol-2(1H)-one]
10 to 30	O=C1N(c2ccc(Cl)cc2)[C@@H]2CCC[C@]2(c2cccc(C(F)F)c2)N1c1ccc(Cl)cc1 [Example 16-2, (3aR,6aR)-1,3-bis(4-chlorophenyl)-3a-(3-(difluoromethyl)phenyl)hexahydrocyclopenta[d]imidazol-2(1H)-one]
< 1	CCC1(CC)[C@@H](c2cccc(OC(F)(F)F)c2)N(c2ccc(Cl)cc2)C(=O)N1c1ccc(Cl)cc1 [Example 17-1, (R)-1,3-bis(4-chlorophenyl)-4,4-diethyl-5-(3-(trifluoromethoxy)phenyl)imidazolidin-2-one]
1 to 10	CCC1(CC)[C@H](c2cccc(OC(F)(F)F)c2)N(c2ccc(Cl)cc2)C(=O)N1c1ccc(Cl)cc1 [Example 17-2, (S)-1,3-bis(4-chlorophenyl)-4,4-diethyl-5-(3-(trifluoromethoxy)phenyl)imidazolidin-2-one]
1 to 10	CC[C@]1(C)[C@@H](c2cccc(OC(F)(F)F)c2)N(c2ccc(Cl)cc2)C(=O)N1c1ccc(Cl)cc1 [Example 19-1, (4R,5R)-1,3-bis(4-chlorophenyl)-4-ethyl-4-methyl-5-(3-(trifluoromethoxy)phenyl)imidazolidin-2-one]
< 1	CC[C@]1(C)[C@H](c2cccc(OC(F)(F)F)c2)N(c2ccc(Cl)cc2)C(=O)N1c1ccc(Cl)cc1 [Example 19-2, (4R,5S)-1,3-bis(4-chlorophenyl)-4-ethyl-4-methyl-5-(3-(trifluoromethoxy)phenyl)imidazolidin-2-one]
